Reference: paper PMC9405596, “Evaluation of the Anti-Leishmania mexicana and -Trypanosoma brucei Activity and Mode of Action of 4,4′-(Arylmethylene)bis(3-methyl-1-phenyl-1H-pyrazol-5-ol)” (Biomedicines, 2022)
Entries after “also recorded” stand apart in the source; their conditions may differ. Where two headings read alike, the source gives them in different places.

Legend:
[1] = system: bloodstream form of T. b. brucei (strain 427); assay: Bioluminescence viability assay against bloodstream T. b. brucei expressing luciferase; conditions: for T. brucei SI vs. Hepatocytes: CC50 HepG2 hepatocytes/IC50 T. brucei; for T. brucei bloodstream SI vs. Macrophages: CC50 RAW macrophages/IC50 T. brucei; for activity at 10 µM / IC50: 24 h; for activity at 10 µM: read-out: T. brucei bloodstream % Growth (10 µM), 10 µM, 24 h; for SI against T. brucei, range over both mammalian cell lines: murine macrophages and HepG2 hepatocytes
[2] = MTT cytotoxicity assay, murine macrophages; assay type: cell-based; conditions: mouse, RAW 264.7 macrophage cells, RAW 264.7, 48 h
Experimental: (§1) Murine macrophages (cell line RAW 264.7, ATCC® TIB-71™) were grown in Dulbecco’s Modified Eagle Medium (DMEM) (Gibco, Invitrogen, Waltham, MA, USA) supplemented with 10% fetal bovine serum (FBS) (Eurobio) and 100 IU/mL penicillin + 100 µg/mL streptomycin (Gibco), at 37 °C, in an atmosphere containing 5% CO2. Human hepatocyte cell line HepG2 (ATCC® HB-8065™) was grown in MEM (Gibco, Invitrogen) supplemented with 10% FBS (Gibco, Invitrogen), 1% NEAA (Gibco, Invitrogen), and 1% L-glutamine (Gibco, Invitrogen). The medium was renewed twice a week. For both cell lines, the viability was determined using the MTT assay as described before for leishmanicidal activity assessment, with some variations. Here, 5 × 10^4 cells/well in a final volume of 100 µL were seeded into a 96-well plate, in triplicate for RAW macrophages and in duplicate for HepG2. Saponin (2.4 mg/mL) and untreated cells were used as positive control and negative control, respectively. Compounds were dissolved in DMSO to obtain different serial concentrations (1.56 to 800 µM) for RAW macrophages and 100–0.001 µM for HepG2. The final concentration of DMSO in each well was 0.5%. After exposure to compounds for 48 h and 72 h for RAW and HepG2 cells, respectively, 10 µL/well of MTT (5 mg/mL in PBS) was added, incubated at 37 °C for 2 h in darkness, and cells were pelleted via centrifugation at 4400 rpm for 10 min. The medium was removed, and 100 µL/well of DMSO was added to dissolve formazan. The absorbance at 570 and 630 nm was recorded following the same procedure as with parasites.

[3] = system: L. mexicana promastigotes; assay: MTT viability assay against L. mexicana promastigotes; assay type: cell-based, Leishmania mexicana; conditions: for L. mexicana Promastigote SI vs. Hepatocytes: CC50 HepG2 hepatocytes/IC50 L. mexicana; for IC50: 48 h; for L. mexicana Promastigote SI vs. Macrophage: CC50 RAW macrophages/IC50 L. mexicana
Experimental: The leishmanicidal activity against promastigotes from L. mexicana was evaluated by measuring parasites’ mitochondrial activity using the MTT (Thiazolyl Blue Tetrazolium Bromide) colorimetric assay as described previously. […] The medium was renewed every third day and subcultures were prepared when parasite density reached 1 × 10^7 parasites/mL. A Neubauer chamber was used to determine parasite density.

[4] = MTT cytotoxicity assay, HepG2; assay type: cell-based; conditions: human, HepG2 cells, HepG2, 72 h, read-out: CC50 HepG2 Hepatocytes
Experimental: as §1

[5] = parameters: method as in PMID 34082794; conditions: ref [17]; cited from earlier work
[6] = system: recombinant roGFP2 biosensor; assay: In vitro fluorescence assay with recombinant roGFP2 biosensor; assay type: biochemical; conditions: 50 µM compound, 5 µM biosensor, 1 h
Experimental: The His-tagged recombinant form of a roGFP2 biosensor was expressed and purified from Escherichia coli (strain C41). An overnight pre-culture (LB medium + 50 µg/mL kanamycin, 220 rpm at 37 °C) of transformed cells was diluted 1:100 in fresh 2YT medium with 50 µg/mL kanamycin, and grown at 220 rpm and 37 °C until reaching an OD600 of ~0.8. At this time point, the culture was supplemented with IPTG (end concentration 1 mM) and the incubation was extended overnight at 100 rpm, 20 °C. Cells were harvested by centrifugation at 5000× g for 10 min at 4 °C and the cell pellet was resuspended in Buffer A (50 mM sodium phosphate, pH 8.0, 300 mM NaCl) at a ratio of 5 mL buffer per gram of pellet. Lysozyme (50 mg/mL) and DNAse (15 U/mL; Roche) were added to the cell homogenate and the suspension was incubated for 1 h on ice. Next, cells were sonicated for 2 min (30 s on/off pulses at an amplitude of 40%) and the lysate was centrifuged twice at 23,000× g, 4 °C, for 1 h. The clarified supernatant was filtered (0.4 µm filter) and applied to a 5 mL HisTrap column (GE Healthcare, Chicago, IL, USA) pre-equilibrated with Buffer A. The column was washed with 15 mL of Buffer A and then with 15 mL of Buffer A + 20 mM Imidazole. The recombinant protein was eluted from the column with Buffer A + 500 mM Imidazole. The elution fractions containing the biosensor (optical observation) were pooled and buffer exchanged against Buffer A using a PD-10 column (G25-sepharose, GE Healthcare). In order to remove the His-tag, the recombinant protein was digested overnight (4 °C) using 4.5 mg/mL TEV protease in Buffer A containing 5 mM DTT and 2 mM EDTA. Finally, the digested sample was applied to a 5 mL HisTrap column pre-equilibrated with Buffer A, and the flow-through containing the un-tagged biosensor was collected. The purity of the recombinant biosensor was evaluated by SDS-PAGE, and the protein concentration estimated by measuring absorbance at 280 nm (ε^280 23.290 M^−1cm^−1) in a Nanodrop DS-11 FX device. Upon purification, the biosensor was obtained in an oxidized state, as assessed via spectrofluorimetry (see below).
For the fluorescence assays, the recombinant biosensor was used at a final concentration of 5 µM and compounds at 50 µM in Buffer A with DMSO (final concentration 1%). DTT was added at 10 mM for achieving full biosensor reduction. Fluorescence spectra ([…] and emission) were recorded using a Cary Eclipse equipment. […]

[7] = system: hGrx1-roGFP2 redox biosensor in bloodstream T. brucei brucei; assay: In-cell redox assay with hGrx1-roGFP2 biosensor (flow cytometry); conditions: compound at its IC50, 1 h; for intracellular biosensor oxidation: relative to diamide (full oxidation) and DTT (reduction)
bloodstream T. b. brucei = assay: Microscopic observation of cell motility; assay type: cell-based, Trypanosoma brucei brucei; conditions: 0.9 µM, 24 h, vs vehicle-treated parasites
[8] = system: Human hepatocyte cell line HepG2; conditions: read-out: CC50 HepG2 Hepatocytes, ref [47]; cited from earlier work
[9] = Trypanosoma brucei, read-out: T. brucei bloodstream IC50, 24 h, bioluminescence
[10] = read-out: T. brucei bloodstream IC50, bioluminescence
[11] = Leishmania mexicana, read-out: L. mexicana Promastigote IC50, promastigotes, 48 h, MTT
[12] = read-out: L. mexicana Promastigote IC50, promastigotes, MTT

Row | Structure (SMILES) | T. brucei SI vs. Hepatocytes [1] | T. brucei bloodstream SI vs. Macrophages [1] | activity at 10 µM ([1]; Trypanosoma brucei) [%] | IC50 [1, 9] [µM] | CC50 at 48 h [2] [µM] | L. mexicana Promastigote SI vs. Hepatocytes [3] | IC50 [3, 11] [µM] | CC50 at 72 h [4] [µM] | direct oxidation of the reduced recombinant biosensor [6] | prevention of biosensor oxidation (oxidized form) [6] | L. mexicana Promastigote SI vs. Macrophage [3] | intracellular biosensor oxidation [7] [%] | biosensor oxidation vs. DMSO [7] [%] | other results
1 | Cc1nn(-c2ccccc2)c(O)c1C(c1ccc(O)c(O)c1)c1c(C)nn(-c2ccccc2)c1O [Compound 2n] | >9.8 | 7 | ≤ 50 | 10 | 70 ± 7 | >14.3 | 7 ± 1 | > 100 |  |  |  |  |  | IC50 [1, 10]: 10.2 ± 1.75 µM; radical scavenging activity relative to ascorbic acid [5]: higher
2 | Cc1nn(-c2ccccc2)c(O)c1C(c1ccc(C(F)(F)F)cc1)c1c(C)nn(-c2ccccc2)c1O [Compound 2r] | 2.0 | 5.4 | ≤ 50 | 10 ± 3 | 54 ± 3 | 6.1 |  | 20 ± 4 | did not induce direct oxidation | 11–13% | 16.4 | 56 | 23 | radical scavenging activity relative to ascorbic acid [5]: higher
3 | Cc1nn(-c2ccccc2)c(O)c1C(c1ccccc1C(F)(F)F)c1c(C)nn(-c2ccccc2)c1O [Compound 2v, 4,4′-[(2-trifluoromethylphenyl)methylene]bis(3-methyl-1-phenyl-1H-pyrazol-5-ol)] |  |  |  |  | 91 ± 18 | 3.5 | ≤ 10 | 21 ± 2 |  |  | 15.1 |  |  | anti-T. brucei activity in preliminary screening, in words ([1]; 10 µM): inactive; also recorded: lacked activity; IC50 [3, 12]: 6 ± 1 µM; melting point: 245 to 248 °C
4 | Cc1nn(-c2ccccc2)c(O)c1C(c1cccc(C(F)(F)F)c1)c1c(C)nn(-c2ccccc2)c1O [Compound 2w, 4,4′-[(3-trifluoromethylphenyl)methylene]bis(3-methyl-1-phenyl-1H-pyrazol-5-ol)] | 2.9 | 6.8 | ≤ 50 | 9 | 61 ± 4 | 6.5 |  | 26 ± 3 | did not induce direct oxidation | 11–13% | 15.2 | 63 | 30 | IC50 [1, 10]: 8.9 ± 0.7 µM
5 | Cc1nn(-c2ccccc2)c(O)c1C(c1cc(C(F)(F)F)cc(C(F)(F)F)c1)c1c(C)nn(-c2ccccc2)c1O [Compound 2x, 4,4′-{[3,5-bis(trifluoromethyl)phenyl]methylene}bis(3-methyl-1-phenyl-1H-pyrazol-5-ol)] | 16 | 18 |  | 1.9 ± 0.9 | 34 ± 5 | 4.3 | ≤ 10 | 30 ± 2 | did not induce direct oxidation | 11–13% | 4.8 | 95 | 63 | SI against T. brucei, range over both mammalian cell lines [1]: 11.6–18; IC50 [3, 12]: 7 ± 2 µM
6 | Cc1nn(-c2ccccc2)c(O)c1C(c1ccc(O)cc1O)c1c(C)nn(-c2ccccc2)c1O [Compound 2y, 4,4′-[(2,4-dihydroxyphenyl)methylene]bis(3-methyl-1-phenyl-1H-pyrazol-5-ol)] | >111 | 189 |  | 0.9 ± 0.2 | 170 ± 1 |  | > 50 | > 100 |  |  |  |  |  | cell motility by microscopic observation (bloodstream T. b. brucei): did not reveal an impairment of cell motility
7 | CC1CS(=O)(=O)CCN1/N=C/c1ccc([N+](=O)[O-])o1 (stereo not shown) [Nifurtimox, reference compound] | 13 |  |  | 3.5 | > 100 |  |  |  |  |  |  |  |  | SI against T. brucei, range over both mammalian cell lines [1]: 13–28.5; CC50 [8]: 45 ± 1 µM
